In patent US12117442B2, “Methods of screening compounds” (Depixus SAS, priority 2022, dated 2024):
Like-named read-outs stand apart in the source and are kept apart here.

Columns and labels:
HIV-1 TAR [1] = test: Ramp experiments (unfolding/refolding force) on HIV-TAR RNA; format: binding; settings: for effect on unfolding force: adding increasing concentrations
Description: In a ramp experiment, the nucleic acid (e.g., RNA) molecules are subjected to multiple cycles of slowly increasing and/or decreasing force, and the value at which the molecule unfolds or refolds can be determined from a sudden change in the bead's position. Upon binding, a ligand can cause a change in the unfolding or refolding force if it stabilizes or destabilizes the RNA structure.
A 59-nucleotide HIV-TAR RNA flanked by RNA/DNA duplexes was attached to a paramagnetic bead on one side and the flowcell on the other end.
To investigate whether the platform can distinguish between different KD, three additional small molecules were used that are known to bind to the HIV-1 TAR structure with varying binding affinities (FIG. 2C-2E). […] Above 100 μM of Kanamycin, there is a widening of the force distribution (FIG. 2D).

HIV-1 TAR [2] = settings: known binder of HIV-1 TAR; cited from earlier work
[3] = system: wild type (WT) Bsu preQ1 riboswitch; test: Step constant-force experiments on WT preQ1 riboswitch; format: binding
Description: In a Constant-Force Experiment, the nucleic acid molecules are subjected to the same force for a certain amount of time before it is increased in a stepwise manner. The equilibrium force is the point at which the molecule spends equal time in both folded and unfolded states. Ligand binding at this force can cause a change in the dynamics of folding and unfolding.
(§1) To study the molecular dynamics of the preQ1 riboswitch using the platform described herein, wild type (WT) Bsu riboswitch was attached to the flowcell as described in Example 1. A step constant-force experiments were then performed, where the molecule is kept at a constant force for a given amount of time before increasing the force in a stepwise manner from lower to higher forces (FIG. 3B). The z position of the bead was recorded and at forces closer to equilibrium, the molecule transitioned between the folded and unfolded state (FIG. 3B). The force was maintained constant for five minutes at the equilibrium force (where the molecule spends as much time in the unfolded versus folded state) and various concentrations of the preQ1 ligand were tested. The binding of the ligand to the structure (arrows shown in representative binding analysis curve of FIG. 3C) was monitored in real time and at the level of the single molecule. A binding which causes the structure to remain in the folded state for more than 3 seconds was recorded. The kon calculated by dividing the number of events observed when the ligand is bound to the RNA structure over the time of experiment at a given concentration of the ligand. The RNA is considered bound to a ligand (here preQ1 ligand) when it stays folded for longer than 3.3 seconds. By testing different concentrations, the kon of the molecule was measured (FIG. 3D). The koff is inverse of the length of time when the RNA structure is bound by a ligand. Accordingly, a duration, when the ligand left the RNA structure (star) as the RNA structure went back to rapid transition between folded and unfolded state, was observed. The duration of this folded state allows to measure the koff of the ligand (FIG. 3E). The kon is dependent on the ligand concentration whereas the koff is not. For each force, the raw data was fitted to two different states using Hidden Markov model (FIG. 3B), and the fraction of time for which each molecule is present at the folded state was calculated over the time at each force step. The fraction was plotted against the force for each step, and the equilibrium force (inflection point) was determined for each molecule when the molecule spent 50% of the time at each state (FIG. 3F). The half-width of the force can also be determined by calculating 1/e (e=Euler's number) on either side of the inflection point, which indicates the force range where the molecule is bistable and transitions from folded and unfolded state (FIG. 3F). The transition frequency was calculated for each of the force steps recorded and plotted again the normalized force, corresponding to the equilibrium force for each bead in control conditions (FIG. 3G).
For the subsequent experiments, 1 mM Mg^2+ was added in all buffers.
To study the effect of preQ1 ligand binding to the riboswitch, constant-force step experiments were performed with increasing concentration of preQ1 ligand (FIG. 3B).

preQ1 riboswitch [4] = test: Long constant-force experiments at 9.6 pN on preQ1 riboswitch; format: binding, Bsu
Protocol: as §1, with “The koff is inverse of the length of time when the RNA structure is bound by a ligand. Accordingly, a duration, when the ligand left the RNA structure (star) as the RNA structure went back to rapid transition between folded and unfolded state, was observed. The duration of this folded state allows to measure the koff of the ligand (FIG. 3E). The kon is dependent on the ligand concentration whereas the koff is not.” left out, “The transition frequency was calculated for each of the force steps recorded and plotted again the normalized force, corresponding to the equilibrium force for each bead in control conditions (FIG. 3G).” left out

WT preQ1 riboswitch = test: Ramp analysis, WT preQ1 riboswitch; format: binding, Bsu; settings: fit of high-force fraction
Protocol: The WT preQ1 riboswitch was used as a reference (FIG. 4B). […] The peak around the reference force decreased while there was an increase in the proportion of cycles that have a higher unfolding force. The higher force cycles can represent the binding of the ligand and formation of the pseudoknot. The fraction of cycles that have an unfolding force greater than 95% confidence interval of each bead was calculated in control conditions (FIG. 4B). […] This is similar to the KD calculated in Example 2 from the constant force experiment at 9.6 pN.

[5] = target: preQ1 riboswitch C15U mutant; test: Ramp analysis, C15U mutant preQ1 riboswitch; format: binding, Bsu; settings: fit of high-force fraction
Description: (§2) The preQ1 riboswitch has several point substitutions that modify affinity to the preQ1 ligand (FIG. 4A).
(§3) Having established a reference point, the four different mutants were used to study the effect on preQ1 binding (FIG. 4C-4G). […] The difference could be due to the Mg^2+ used. Nonetheless, the platform was able to distinguish a 3-fold differences in KD, which is less apparent in platforms like SPR or fluorescent titration.

[6] = target: preQ1 riboswitch U7C + C15U mutant; test: Ramp analysis, U7C + C15U double mutant preQ1 riboswitch; format: binding, Bsu; settings: fit of high-force fraction
Description: as §2, §3

[7] = system: preQ1 riboswitch A10G mutant; test: Ramp analysis, A10G mutant preQ1 riboswitch; format: binding, Bsu
Description: as §2
With this mutant, the whole distribution was shifted towards higher forces, instead of having two different fractions (FIG. 4E). […] The constant-force step experiment also reflected the changes in the equilibrium force in micromolar range (FIG. 4F).

[8] = system: preQ1 riboswitch U6C mutant; test: Ramp analysis, U6C mutant preQ1 riboswitch; format: binding, Bsu; settings: no KD from fitting maximum density or high-force density
Description: as §2

preQ1 riboswitch [9] = settings: comparison result obtained by smFRET; cited from earlier work
[10] = system: preQ1 riboswitch C15U mutant; settings: C15U versus wt; basis for selecting the mutant; cited from earlier work
[11] = system: preQ1 riboswitch U7C + C15U mutant; settings: U7C + C15U versus wt; basis for selecting the mutant; cited from earlier work
[12] = system: preQ1 riboswitch A10G mutant; settings: A10G versus wt; basis for selecting the mutant; cited from earlier work
[13] = system: preQ1 riboswitch U6C mutant; settings: U6C versus WT; basis for selecting the mutant; cited from earlier work
pre-miR-21 = test: Dicer binding to pre-miR-21 (unfolding force); settings: 20 nM full-length Dicer without magnesium
Protocol: (§4) Pre-miR-21 and pre-miR-21-bp mutants are used as substrates to measure the effect of Dicer on the folding kinetics. Dicer is a double-strand-specific ribonuclease that binds the pre-miRNAs and cleaves them to generate mature miRNAs. Adding 20 nM of full-length Dicer without magnesium causes the binding of the protein to the structure without further processing of the structure. […] Therefore, the platform described herein is useful for detecting interaction between an RNA scaffold and an RNA binding protein.

pre-miR-21-bp mutant = test: Dicer binding to pre-miR-21-bp mutant; settings: 20 nM full-length Dicer without magnesium; mutation abolishes bulge
Protocol: as §4

[14] = fit of changes in unfolding force, ramp experiments, read-out: calculated KD
[15] = 1 μM preQ1 ligand, lesser extent than 1 mM Mg^2+
[16] = increasing concentrations of preQ1, 1 mM Mg^2+ in buffers

Compound: Cc1ccc2c(N)c(C(=O)Nc3cccc(C(F)(F)F)c3)sc2n1 [Compound 4, 3-Amino-6-methyl-N-(3-(trifluoromethyl)phenyl)thieno[2,3-b]pyridine-2-carboxamide]
- effect on unfolding force (HIV-1 TAR [1]): decrease in the unfolding force
- Kd (HIV-1 TAR [1]; [14]): 2.99 µM
- Kd (HIV-1 TAR [2]): 2.4 µM

Compound: [Mg+2] [Mg^2+]
- effect on transition frequency at equilibrium force ([3]; 1 mM Mg^2+ alone, no ligand): transition frequency decreased
- effect on unfolding equilibrium force ([3]; 1 mM Mg^2+ alone, no ligand): increased the unfolding equilibrium force

Compound: CCN[C@@H]1C[C@H](N)[C@@H](O[C@H]2OC(CN)=CC[C@H]2N)[C@H](O)[C@H]1O[C@H]1OC[C@](C)(O)[C@H](NC)[C@H]1O [Netilmicin]
- effect on unfolding force (HIV-1 TAR [1]): increase in the unfolding force
- Kd (HIV-1 TAR [1]; [14]): ~13.4 µM
- Kd (HIV-1 TAR [2]): 1.4 µM
- Ki (HIV-1 TAR [2]): ~14 µM

Compound: N=C(N)NCCC[C@H](N)C(N)=O [argininamide]
- effect on unfolding and refolding force (HIV-1 TAR [1]; 10 mM): increased both the unfolding and refolding force
- effect on unfolding force (HIV-1 TAR [1]): increased the unfolding force
- Kd (HIV-1 TAR [1]; fit of normalized force at maximum unfolding distribution for each bead, read-out: KD): 5430 µM

Compound: NCc1c[nH]c2nc(N)[nH]c(=O)c12 [preQ1]
- effect of ligand and cation together ([3]; 1 μM preQ1 ligand plus 1 mM Mg^2+): additive effect
- effect on transition frequency [3, 15]: decreased transition frequency
- effect on unfolding equilibrium force [3, 15]: increased the unfolding equilibrium force
- Kd ([3]; fit of equilibrium force at each concentration): 0.162 µM
- effect on equilibrium force [3, 16]: increased equilibrium force
- effect on transition frequency [3, 16]: decreased the transition frequency
- Kon (preQ1 riboswitch [4]; 9.6 pN, fit of attachment rate): 0.0015 ^−1 nM^−1
- Koff (preQ1 riboswitch [4]; 9.6 pN, one per mean time of ligand-bound event): 0.11 s⁻¹
- Kd (preQ1 riboswitch [4]; calculated by Koff/Kon): 0.073 µM
- Kd (WT preQ1 riboswitch): 0.0878 µM
- Kd [5]: 0.00535 µM
- Kd [6]: 0.0177 µM
- increase in KD compared with WT ([7]; A10G versus WT): ~400 fold
- Kd ([7]; A10G, fit of maximum unfolding force density for each bead): 34.7 µM
- ligand binding [8]: abolished the ligand binding
- Kd (preQ1 riboswitch [9]): 0.134 µM
- Effect of mutation on binding affinity [10]: Increase versus wt
- Effect of mutation on binding affinity [11]: Greatly Increase versus wt
- Effect of mutation on binding affinity [12]: Decrease versus wt
- Effect of mutation on binding affinity [13]: Abolished versus WT

Compound: Dicer: double-strand-specific ribonuclease that binds the pre-miRNAs and cleaves them to generate mature miRNAs
- effect of binding on unfolding force (pre-miR-21): increase in the unfolding force
- binding to mutant (pre-miR-21-bp mutant): does not occur
